The conditions of data set [1]: female rat, oral 10-30 mg/kg; ref Gannon et al. 2016; cited from earlier work.
For the next data set, the system named is fetal testis. The data set is described as follows: Ex vivo fetal testis testosterone production. It is filed as in vivo, Sprague-Dawley rats. To be noted: any dose. On the procedure:
For the first two blocks, spanning the full dose range, late gestation (GD18) dams were euthanized by decapitation at ∼2h after the final oral dose [ ∼0830–1000 hours Eastern Standard Time (EST)]. Trunk blood was collected and serum isolated via centrifugation ( 10,000×g for 15 min at 4°C) in vacutainer tubes, transferred to 1.5-mL microcentrifuge tubes and stored at −80°C . Dam liver weight was recorded and a sample of liver tissue was collected into a polypropylene microcentrifuge tube containing 500μL TRIzol Reagent (Invitrogen) on ice. Fetuses were removed and two randomly selected fetuses per litter were weighed. […] Ex vivo fetal testis testosterone production was measured as previously reported ([Wilson et al. 2004b]) except the radioimmunoassay (RIA) utilized here was supplied by ALPCO (Catalog No. 72-TESTO-CT2, ALPCO). […]
Fetal testis testosterone production was normalized to the mean control concentration within a given block and analyzed as percentage of control values across blocks. Maternal liver weight was analyzed using body weight as a covariate within PROC GLM followed by pairwise comparison using LSMEANS, this analysis produces linear regressions of body weight versus liver weight for each dose group. […]

Broadly, the half-life is the time in which the quantity being followed falls by half. Take `O=C(O)C(F)(OC(F)(F)C(F)(F)C(F)(F)F)C(F)(F)F` (centres unmarked) [HFPO-DA, Hexafluoropropylene oxide dimer acid]: the half-life in data set [1] is ~5 h. In addition, the “fetal testis testosterone production versus controls” value in the data set on fetal testis is on record as “not significantly different from controls at any dose”.

The values above are taken from paper PMC6768323, “Adverse Maternal, Fetal, and Postnatal Effects of Hexafluoropropylene Oxide Dimer Acid (GenX) from Oral Gestational Exposure in Sprague-Dawley Rats” (Environmental Health Perspectives, 2019).
